The results in this text go back to ChEMBL document CHEMBL4251732, “Discovery of Novel Indoleamine 2,3-Dioxygenase 1 (IDO1) and Histone Deacetylase (HDAC) Dual Inhibitors” (ACS Med Chem Lett, 2018).

Active and inactive are the calls of the source. The calls are words filed in the database; no cut-off is given here. Where only a bound is given, the exact number is not on record here.

Usually IC50 stands for the concentration at which inhibition is half-maximal. By Cmax is commonly meant the maximum level reached in the sampled fluid or tissue. For orientation: Tmax means the time from dosing to the highest level. For orientation: half-life means the time in which the quantity being followed falls by half. Higher therefore signals slow loss. In general, AUC(0-inf) refers to the area under the concentration-time curve extrapolated to infinity. Read a high AUC(0-inf) as high exposure. What is called AUC is the area under the concentration-time curve, a measure of exposure. For orientation: inhibition means the relative decrease from the control value, in per cent.

The target of one series is Histone deacetylase 1 (Homo sapiens, UniProt Q13547). Nature of the series: Inhibition of recombinant human full length HDAC1 using fluorogenic substrate 3 after 30 mins by fluorescence assay.
Chain of Histone deacetylase 1 (Q13547 whole entry, the tested form may be a part): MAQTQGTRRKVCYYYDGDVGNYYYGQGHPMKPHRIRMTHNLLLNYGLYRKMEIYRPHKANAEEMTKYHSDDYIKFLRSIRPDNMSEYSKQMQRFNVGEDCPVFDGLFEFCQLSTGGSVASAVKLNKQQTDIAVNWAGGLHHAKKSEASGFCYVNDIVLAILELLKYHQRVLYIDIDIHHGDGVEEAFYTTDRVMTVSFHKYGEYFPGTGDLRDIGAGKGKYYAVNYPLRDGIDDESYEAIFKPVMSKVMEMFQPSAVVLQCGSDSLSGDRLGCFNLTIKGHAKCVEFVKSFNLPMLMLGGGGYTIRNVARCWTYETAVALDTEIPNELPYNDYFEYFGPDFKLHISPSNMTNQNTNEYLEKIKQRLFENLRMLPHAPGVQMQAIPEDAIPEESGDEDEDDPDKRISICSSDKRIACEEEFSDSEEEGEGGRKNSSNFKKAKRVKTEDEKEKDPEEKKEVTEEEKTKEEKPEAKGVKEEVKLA
For series [1], the target named is T1, Indoleamine 2,3-dioxygenase 1 (Homo sapiens, UniProt P14902). Put plainly: Inhibition of recombinant human GST-tagged IDO1 (1 to 404 residues) using D-Tryptophan as substrate.
Target sequence in this assay (P14902 whole entry, the tested form may be a part): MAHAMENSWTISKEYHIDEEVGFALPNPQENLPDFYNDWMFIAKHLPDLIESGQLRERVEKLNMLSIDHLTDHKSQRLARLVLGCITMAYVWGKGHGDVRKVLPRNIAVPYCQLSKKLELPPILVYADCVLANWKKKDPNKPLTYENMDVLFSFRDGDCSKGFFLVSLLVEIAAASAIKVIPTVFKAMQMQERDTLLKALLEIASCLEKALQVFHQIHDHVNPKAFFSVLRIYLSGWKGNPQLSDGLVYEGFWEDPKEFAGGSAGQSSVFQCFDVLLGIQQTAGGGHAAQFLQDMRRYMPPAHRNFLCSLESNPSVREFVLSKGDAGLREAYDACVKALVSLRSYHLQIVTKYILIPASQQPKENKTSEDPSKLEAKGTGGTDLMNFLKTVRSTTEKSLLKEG
Series [2] has as its system Lewis lung carcinoma cell line. Put plainly: Antiproliferative activity against mouse LLC cells after 48 hrs by CCK-8 assay. The series is classed as functional, cell-based.
A further series deals with CT26. Put plainly: Antiproliferative activity against mouse CT26 cells after 48 hrs by CCK-8 assay. The series is classed as functional, cell-based. Conditions: CT26, 48 h. For orientation: Tetrazolium assays rely on reduction of a dye to a coloured formazan, in cell work by metabolically active cells.
In a further series the test system is A549. Put plainly: Antiproliferative activity against human A549 cells after 48 hrs by CCK-8 assay. Format: functional, cell-based. Conditions: A549, 48 h.
Series [3] has as its system HCT-116. Nature of the series: Antiproliferative activity against human HCT116 cells after 48 hrs by CCK-8 assay. Conditions: HCT-116, 48 h. Format: functional, cell-based.
A further series has as its system HT-29. Nature of the series: Antiproliferative activity against human HT-29 cells after 48 hrs by CCK-8 assay. Format: functional, cell-based. Conditions: HT-29, 48 h.
Series [4] relates to HCT-116. Put plainly: Induction of apoptosis in human HCT116 cells after 48 hrs by Annexin V-FITC/propidium iodide staining based flow cytometry. The series is classed as functional, cell-based.
Series [5] concerns HCT-116. Nature of the series: Induction of apoptosis in human HCT116 cells at 5 uM after 48 hrs by Annexin V-FITC/propidium iodide staining based flow cytometry relative to control. The series is classed as functional. A general note: Flow cytometry measures light scatter and fluorescence of single cells or particles in a stream.
The test system of series [6] is HCT-116. Nature of the series: Induction of apoptosis in human HCT116 cells at 10 uM after 48 hrs by Annexin V-FITC/propidium iodide staining based flow cytometry relative to control. Format: functional.
Series [7] deals with HCT-116. Put plainly: Induction of apoptosis in human HCT116 cells at 20 uM after 48 hrs by Annexin V-FITC/propidium iodide staining based flow cytometry relative to control. Format: functional.
Series [8] relates to HCT-116. Nature of the series: Cell cycle arrest in human HCT116 cells assessed as accumulation at G2/M phase up to 48 hrs by propidium iodide staining based flow cytometry. Format: functional.
A short description of series [9]: Cmax in Sprague-Dawley rat at 100 mg/kg, po administered as single dose via gavage by LC-MS/MS analysis. The series is classed as ADME, organism-based. More on the design: dose 100 mg/kg, route oral. Conditions: in vivo.
Series [10] can be described thus: Tmax in Sprague-Dawley rat at 100 mg/kg, po administered as single dose via gavage by LC-MS/MS analysis. The series is classed as ADME, organism-based. Conditions: in vivo.
Series [11] is described as follows: Half life in Sprague-Dawley rat at 100 mg/kg, po administered as single dose via gavage by LC-MS/MS analysis. The series is classed as ADME, organism-based. Conditions: in vivo.
Series [12] in a line: AUC (0 to infinity) in Sprague-Dawley rat at 100 mg/kg, po administered as single dose via gavage by LC-MS/MS analysis. The series is classed as ADME, organism-based. Further details: dose 100 mg/kg, time infinity, route oral. Conditions: in vivo.
Series [13] can be described thus: AUC in immunocompetent C57BL/6 mouse implanted with mouse LLC cells at 100 mg/kg, po bid administered via gavage. Format: ADME, organism-based. Conditions: in vivo.
Series [14] can be described thus: Half life in immunocompetent C57BL/6 mouse implanted with mouse LLC cells at 100 mg/kg, po bid administered via gavage. The series is classed as ADME, organism-based. Conditions: in vivo.
Series [15] has as its target T1, Indoleamine 2,3-dioxygenase 1. Put plainly: Inhibition of recombinant human GST-tagged IDO1 (1 to 404 residues) at 1 uM using D-Tryptophan as substrate relative to control.
Target sequence in this assay (P14902 whole entry, looked up, the tested form may be a part): as the sequence (P14902 whole entry, the tested form may be a part) above
For series [16], the system named is Mus musculus. Nature of the series: In vivo inhibition of IDO1 in wild type C57BL/6 mouse assessed as reduction in kynurenine levels in plasma at 100 mg/kg, po administered via gavage measured up to 1 hr by LC-MS/MS analysis. Format: functional, organism-based.
The test system of series [17] is Mus musculus. Nature of the series: In vivo inhibition of IDO1 in wild type C57BL/6 mouse assessed as reduction in kynurenine levels in plasma at 100 mg/kg, po administered via gavage after 8 hrs by LC-MS/MS analysis. The series is classed as functional. Conditions: C57BL/6, po.
Series [18] concerns Lewis lung carcinoma cell line. Put plainly: Antitumor activity against mouse LLC cells implanted in immunocompetent C57BL/6 mouse assessed as tumor growth inhibition at 100 mg/kg, po bid administered via gavage for 14 consecutive days measured every 4 days relative to control. The series is classed as functional. Conditions: 96 h, read-out: TGI.

`O=C(CCCCCCC(=O)NCCNc1nonc1/C(=N/O)Nc1ccc(F)c(Br)c1)NO`: the IC50 at Histone deacetylase 1 was 0.0477 µM; in series [1] it was 0.14 µM; in series [2], 56.6 µM; in the series with CT26, 97.5 µM; in the series with A549, 36 µM; in the series on HCT-116 [3], 4.7 µM. Moreover, the IC50 with HT-29 came to 14.9 µM. The Activity entry with HCT-116 [4] was “Dose-dependent effect”; in the series on HCT-116 [5] it was 25.5%; in the series with HCT-116 [6] it was 31.1%; with HCT-116 [7], 44.5%. In the series with HCT-116 [8], the outcome was Active.

`NS(=O)(=O)NCCNc1nonc1C(=NO)Nc1ccc(F)c(Br)c1` [EPACADOSTAT] returned a Cmax in series [9] of 5560 ng/mL. Also, the Tmax in series [10] turned out to be 0.8 h. The half-life in [11] and in [14] was 4.5 h in each case. In series [12], this compound returned an AUC(0-inf) of 30700 ng·h/mL. In series [13], the AUC worked out at 70.2 µM·h.

Consider `O=C(CCCCn1cc(-c2ccc(C(=O)NCCNc3nonc3/C(=N/O)Nc3ccc(F)c(Br)c3)cc2)nn1)NO`, for which the IC50 on Histone deacetylase 1 is 0.895 µM; in series [2], > 100 µM; with CT26, > 100 µM; with A549, > 100 µM; in the series with HCT-116 [3], 37.5 µM; with HT-29, > 100 µM. Moreover, in series [15], the inhibition worked out at 88%.

For `O=C(CCCC(=O)NCCNc1nonc1/C(=N/O)Nc1ccc(F)c(Br)c1)NO`, the IC50 at Histone deacetylase 1 is 0.121 µM; in series [1], 0.133 µM; in series [2], > 100 µM; in the series with CT26, > 100 µM; in the series on A549 it was > 100 µM; in the series on HCT-116 [3], 80.2 µM. Moreover, the half-inhibitory concentration (IC50) in the series on HT-29 was > 100 µM.

In the case of `O=C(/C=C/c1ccc(C(=O)NCCNc2nonc2/C(=N/O)Nc2ccc(F)c(Br)c2)cc1)NO`, the IC50 was 0.0462 µM at Histone deacetylase 1; 0.168 µM in [1]; 21.6 µM in series [2]; 12.8 µM in the series with CT26; 25.6 µM with A549; 5.89 µM with HCT-116 [3]. The IC50 with HT-29 amounted to 14.2 µM. The Activity result in the series with HCT-116 [4] was “Dose-dependent effect”; in the series on HCT-116 [5] it was 26.7%; with HCT-116 [6] it was 45.4%; in the series on HCT-116 [7], 61.3%. Besides, the outcome with HCT-116 [8] was Active.

Take `O=C(CCCCCCn1cc(-c2ccc(C(=O)NCCNc3nonc3/C(=N/O)Nc3ccc(F)c(Br)c3)cc2)nn1)NO`: the IC50 was found to be 0.0235 µM at Histone deacetylase 1; 0.21 µM in [1]; 36 µM in series [2]; 90.2 µM in the series with CT26; 45.5 µM with A549; 29.4 µM in the series with HCT-116 [3]. This compound also came in with an IC50 in the series on HT-29 of 23.9 µM.

In the case of `O=C(CCCCCC(=O)NCCNc1nonc1/C(=N/O)Nc1ccc(F)c(Br)c1)NO`, the IC50 was found to be 0.0092 µM at Histone deacetylase 1; 0.113 µM in series [1]; 90.1 µM in [2]; 95.5 µM in the series on CT26; 40.7 µM in the series on A549; 17.5 µM in the series with HCT-116 [3]. In the series on HT-29, inhibition was half-maximal at 28.7 µM (IC50).

With `NS(=O)(=O)NCCNc1nonc1/C(=N/O)Nc1ccc(F)c(Br)c1` [EPACADOSTAT], the IC50 (in [2]; with CT26; with A549; in the series on HCT-116 [3]; with HT-29) was > 100 µM each time. The inhibition result with Mus musculus [16] is “Active”. Besides, the results for the inhibition in vivo at 100 mg/kg (in the series on Mus musculus [17]; in series [18]) were 50% and 54.3%, respectively.

Turning to `O=C(NO)c1ccc(C(=O)NCCNc2nonc2/C(=N/O)Nc2ccc(F)c(Br)c2)cc1`, the IC50 is 0.262 µM on Histone deacetylase 1; > 100 µM in [2]; > 100 µM with CT26; 89.8 µM with A549; 28.1 µM with HCT-116 [3]; 68 µM in the series on HT-29. Also, the inhibition in series [15] was determined as 95%.

Regarding `Nc1ccccc1NC(=O)c1ccc(C(=O)NCCNc2nonc2/C(=N/O)Nc2ccc(F)c(Br)c2)cn1`, the IC50 came to 0.604 µM on Histone deacetylase 1; 0.26 µM in [1]; 15.1 µM in [2]; 23.3 µM with CT26; 20.7 µM with A549; 6.36 µM in the series on HCT-116 [3]. This compound also had an IC50 with HT-29 of 12.2 µM.

For the compound `Nc1ccccc1NC(=O)c1cccc(C(=O)NCCNc2nonc2/C(=N/O)Nc2ccc(F)c(Br)c2)c1`, the IC50 at Histone deacetylase 1 turned out to be 0.633 µM; in [2], 31.4 µM; in the series with CT26 it was 25.5 µM; with A549, 27.8 µM; in the series with HCT-116 [3], 16.2 µM; in the series on HT-29 it was 46.4 µM. Further, the inhibition in series [15] is 79%.

Turning to `O=C(CCCCCn1cc(-c2ccc(C(=O)NCCNc3nonc3/C(=N/O)Nc3ccc(F)c(Br)c3)cc2)nn1)NO`, the IC50 on Histone deacetylase 1 was 0.0665 µM; in series [2], > 100 µM; in the series on CT26 it was > 100 µM; in the series on A549, > 100 µM; with HCT-116 [3], > 100 µM; with HT-29, > 100 µM. Besides, the inhibition in [15] turned out to be 87%.

In the case of `O=C(/C=C/c1cccc(C(=O)NCCNc2nonc2/C(=N/O)Nc2ccc(F)c(Br)c2)c1)NO`, the IC50 came to 0.0705 µM at Histone deacetylase 1; 0.027 µM in series [1]; 53.3 µM in series [2]; 38.9 µM in the series with CT26; 41.7 µM in the series on A549; 12.4 µM with HCT-116 [3]. Besides, in the series on HT-29, the IC50 was found to be 23.3 µM.

Turning to `Nc1ccccc1NC(=O)c1ccc(C(=O)NCCNc2nonc2/C(=N/O)Nc2ccc(F)c(Br)c2)s1`, the IC50 was found to be 1.43 µM at Histone deacetylase 1; 18.3 µM in series [2]; 38.8 µM with CT26; 14.5 µM with A549; 7.12 µM in the series on HCT-116 [3]; 20.3 µM in the series with HT-29. The inhibition in [15] is 76%.

With `O=C(CCCCC(=O)NCCNc1nonc1/C(=N/O)Nc1ccc(F)c(Br)c1)NO`, the IC50 on Histone deacetylase 1 is 0.308 µM; in series [1] it was 0.123 µM; in series [2], > 100 µM; with CT26, > 100 µM; in the series on A549, > 100 µM; with HCT-116 [3], 85.4 µM. For the same compound, the half-maximal inhibitory concentration (IC50) in the series with HT-29 is > 100 µM.
